According to PMC4519859, “Synthesis and Biological Evaluation of Novel Dehydroabietic Acid Derivatives Conjugated with Acyl-Thiourea Peptide Moiety as Antitumor Agents” (International Journal of Molecular Sciences, 2015):

How the values were obtained:
HeLa cells [1] = experiment: Hoechst 33258 staining; assay type: cell-based, human; details: 10 μM, 12 and 24 h
Description: Hoechst 33258 which stains the cell nucleus, is a membrane permeable dye with blue fluorescence. Live cells with uniformly light blue nuclei were obviously detected under the fluorescence microscope after treatment with Hoechst 33258 whereas apoptotic cells had bright blue nuclei due to karyopyknosis and chromatin condensation. However, the nuclei of dead cells could not be stained. HeLa cells treated with compound 9n at 10 μM from 12 to 24 h were stained with Hoechst 33258. HeLa cells not treated with compound 9n were used as control for 24 h.
General procedure for Hoechst 33258 staining: cells grown on a sterile cover slip in six-well tissue culture plates were treated with compounds for a certain range of time. The culture medium containing compounds was removed, and the cells were fixed in 4% paraformaldehyde for 10 min. After being washed twice with PBS, the cells were stained with 0.5 mL of Hoechst 33258 (Beyotime, Jiangsu, China) for 5 min and then again washed twice with PBS. The stained nuclei were observed under a Nikon ECLIPSETE2000-S fluorescence microscope using 350 nm excitation and 460 nm emission.

HeLa cells [2] = experiment: AO/EB staining; assay type: cell-based, human; details: 10 μM, 12 and 24 h
Description: The cytotoxicity of compound 9n at a concentration of 10 μM against HeLa cells from 12 to 24 h was detected by AO/EB staining, and Hela cells not treated with the 9n were used as control for 48 h. […] Also due to the AO uptake, control cells appeared green while 9n treated cells appeared green to intense green as apoptotic cells had much more permeable membranes.
Cells were seeded at a concentration of 5 × 10^4 cell/ mL in a volume of 2 mL on a sterile cover slip in six-well tissue culture plates. Following incubation, the medium was removed and replaced with fresh medium plus 10% fetal bovine serum and supplemented with compound 9n (15 μM). After the treatment period, the cover slip with monolayer cells was inverted on a glass slide with 20 μL of AO/EB stain (100 mg/mL). Fluorescence was read on a slide with 20 μL of AO/EB stain (100 mg/mL) using a Nikon ECLIPSETE2000-S fluorescence microscope ([…], Tokyo, Japan).

SK-OV-3 = experiment: MTT cytotoxicity assay, SK-OV-3; assay type: cell-based; details: Homo sapiens, 48 h, mean ± SD, three independent experiments
Description: (§1) The in vitro cytotoxic potency of DHAA acyl-thiourea derivatives 8a–8o and 9a–9o were evaluated by 3-(4,5-dimethylthiazol-2-yl)-2,5-diphenyltetrazolium bromide (MTT) assay against HeLa, SK-OV-3 and MGC-803 tumor cell lines, with 5-FU as the positive control.
(§2) General procedure for cytotoxic evaluation in vitro: HeLa, HepG2, SK-OV-3 and MGC-803 cells were seeded into 96-well microculture plates and allowed to adhere for 24 h, respectively. After cells were exposed to compounds at concentrations from 100 to 0.01 μM for 48 h, medium was aspirated and replenished with complete medium. IC50 was evaluated by MTT tetrazolium dye assay. Each experiment was performed three times; Statistical analysis: All statistical analysis was performed with SPSS Version 10 (SPSS, Chicago, IL, USA). Data was analyzed by one-way ANOVA. Mean separations were performed using the least significant difference method. Each experiment was replicated thrice, and all experiments yielded similar results. Measurements from all the replicates were combined, and treatment effects were analyzed.

HeLa cells [3] = experiment: TUNEL assay; assay type: cell-based, human; details: 10 μM, 12 and 24 h
Description: To further define the mechanism of cell death caused by compound 9n, HeLa cells were treated with compound 9n at 10 μM from 12 to 24 h and the DNA fragmentation was measured by the TUNEL assay. TUNEL (terminal-deoxynucleotidyl transferase meditated nick end labeling) is a common method for identifying apoptotic cells in situ by detecting DNA fragmentation. When the genomic DNA is broken, the exposed 3ʹ-OH at the end of deoxynucleotide transfer as the catalytic plus green fluorescent probes fluorescein (FITC) labeled dUTP, which can be detected by fluorescence microscopy or flow cytometry, as indicated by a green color (in the web version). The results are illustrated in Figure 4. […] The results were in good agreement with the previous experiments.
The TUNEL method was performed to label the 3′-end of fragmented DNA of the apoptotic HeLa cells. The cells treated as indicated were fixed with 4% paraformaldehyde phosphate buffer saline, rinsed with PBS, then permeabilized by 0.1% Triton X-100 for FITC end-labeling the fragmented DNA of the apoptotic HeLa cells using TUNEL cell (Beyotime, Jiangsu, China) apoptosis detection kit. The FITC-labeled TUNEL-positive cells were imaged under a fluorescent microscopy by using 488 nm excitation and 530 nm emission.

HeLa = experiment: MTT cytotoxicity assay, HeLa; assay type: cell-based; details: Homo sapiens, 48 h, mean ± SD, three independent experiments
Description: as §1, §2

HeLa cells [4] = experiment: Intracellular Ca2+ release (Fluo-3/AM); assay type: cell-based, human; details: 10 μM, 24 h
Description: (§3) Mitochondria have also been implicated as a source of ROS during apoptosis. […] We herein studied whether the loss of mitochondrial transmembrane potential resulting in the generation of ROS measured as described in our previous papers , using the fluorescent probe 2,7-dichlorofluorescein diacetate (DCF-DA) determined by fluorescence microscopy. […] Calcium has long been recognized as a significant participant in cell apoptosis. Therefore, we investigated whether compound 9n inducing cell death was involved in the production of Ca^2+. To investigate the effect of compound 9n on calcium release, HeLa cells treated with compound 9n at 10 μM for 24 h were loaded with the Ca^2+ indicator Fluo-3-acetoxymethyl-ester (Fluo-3/AM, 5 µM; Beyotime, Jiangsu, China).

caspase-3 = experiment: Caspase-3 activation assay; assay type: cell-based, human; details: HeLa, versus control, 3 to 24 h
Description: It is well known that an increase of intracellular ROS can lead to apoptosis. […] Caspases are a family of cysteinyl aspartate specific proteases involved in apoptosis and are dichotomized to groups of initiators (caspases 8, 9 and 10) and executioners (caspases 3, 6 and 7). Caspase-3 is able to directly degrade multiple substrates including structural and regulatory proteins. Some small molecules have been developed to be selective activators of Caspase-3 [30]. Thus, we investigated whether caspase-3 was activated when HeLa cells were exposed to compound 9n.

HL-7702 = experiment: MTT cytotoxicity assay, HL-7702 normal cells; assay type: cell-based; details: L02, 48 h, normal human cells, mean ± SD, three independent experiments
Description: [The source words this procedure for another cell line and reports this cell line under the same test.] as §1, §2

HeLa cells [5] = experiment: ROS generation assay (DCF-DA); assay type: cell-based, human; details: 10, 15 μM, 12 h
Description: as §3

CC(C)c1ccc2c(c1)CCC1[C@](C)(C(=O)NC(=S)N[C@H](Cc3ccccc3)C(=O)Nc3ccccn3)CCC[C@]21C (stereo partly drawn) [Compound 9n, (1R,4aS)-7-Isopropyl-1,4a-dimethyl-N-(((R)-1-oxo-3-phenyl-1-(pyridin-2-ylamino)propan-2-yl)carbamothioyl)-1,2,3,4,4a,9,10,10a-octahydrophenanthrene-1-carboxamide]
apoptosis by Hoechst 33258 staining (HeLa cells [1]): typical apoptotic morphology
apoptosis by AO/EB staining (HeLa cells [2]): obvious apoptotic characters
IC50 (SK-OV-3): 19.6 ± 1.87 µM
DNA fragmentation by TUNEL (HeLa cells [3]): significantly induced apoptosis
IC50 (HeLa): 6.58 ± 1.11 µM
intracellular Ca2+ release (HeLa cells [4]): stronger green fluorescence
caspase-3 activity (caspase-3): significant increase in the activity of caspase-3
IC50 (HL-7702): 39.6 ± 1.47 µM
ROS level (HeLa cells [5]): induced an increase of the ROS level
